The record followed here is PubChem BioAssay AID1013 (Columbia University Molecular Screening Center, 2008).

One may read the pIC50 as the IC50 on a negative log10 scale, so that one unit is a factor of ten. In general, IC50 refers to the concentration that gives 50% inhibition. Usually inhibition stands for the relative decrease from the control value, in per cent.

Each structure is given as a SMILES string. pIC50: −log10 of the molar value. Calls of active or inactive are those of the source. How the calls were made is not given here.

A short description of test [1]: inhibitors of TNFa-induced VCAM1 expression, confirmation, imaging, TNFa stimulus, retest and dose response (AID 1013).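 On cell count: compound on cells 1 h before TNFa then 24 h more.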 Particulars: TNFa-stimulated cells, VCAM1 expression imaging; for cell count: at 10 µM, stronger effect = lower value; for inhibition: at 2 µM, stronger effect = higher value.
The subject of test [2] is TNFa-stimulated cells, VCAM1 expression imaging. Described as above.

For the compound `CC1CC(=O)NN=C1c1ccc(NCCO)c([N+](=O)[O-])c1` (configuration not stated), the cell count in test [1] worked out at 71.6%. Also, in test [2], the negative logarithm of the IC50 (pIC50) is 7.29.
For `COc1ccc(C2=Nn3c(nnc3-c3ccccc3OC)SC2)cc1OC`, in that order: 46.9% and 6.25.
As to `CCOC(=O)c1[nH]c(C)c(C(=O)c2ccc(C)cc2)c1C`, in test [1], the cell count amounted to 85.6%. Moreover, in test [2], the IC50 is > 10 µM (inactive).
In turn, `COc1cc(-c2nnc3n2N=C(c2ccccc2)CS3)cc(OC)c1OC` had a cell count in test [1] of 99.8%. The IC50 in test [2] is > 10 µM (inactive).
In the case of `O=C(CS(=O)c1ccc(C(F)(F)F)cc1[N+](=O)[O-])Oc1ccc(Cl)cc1` (configuration not stated), the cell count in test [1] came to 111%. Moreover, the IC50 in test [2] was > 10 µM (inactive).
As for `Cc1cccc2cc(C#N)c(SCC(=O)N3CC(=O)Nc4ccccc43)nc12`, the cell count in test [1] turned out to be 110%. For the same compound, in test [2], the IC50 is > 10 µM (inactive).
Turning to `COc1cc(C2C(C#N)=C(C)NC3=C2C(=O)c2ccccc23)cc(OC)c1OC` (configuration not stated), the cell count in test [1] was 32%. Also, the negative logarithm of the IC50 (pIC50) in test [2] was 6.66.
In the case of `CCOC(=O)C1=C(c2ccccc2)O/C(=C(/C#N)C(F)(F)F)S1`, the cell count in test [1] came to 107%. The IC50 in test [2] is > 10 µM (inactive).
In test [1], `O=C(N/N=C/C=C/c1ccccc1)c1n[nH]c2c1CCC2` displayed a cell count of 103%. For the same compound, in test [2], the IC50 was > 10 µM (inactive).
With `CC(C)Oc1ccccc1C1CC(=O)Nc2cc3c(cc21)OCO3` (configuration not stated), the cell count in test [1] stood at 80.6%. For the same compound, the IC50 in test [2] is > 10 µM (inactive).
On to `O=C1c2cccc3c([N+](=O)[O-])ccc(c23)C(=O)N1c1nccs1`, for which the cell count in test [1] turned out to be 101%. In addition, the IC50 in test [2] was > 10 µM (inactive).
For `O=S(=O)(C/C(=C/CO)S(=O)(=O)c1ccccc1)c1ccccc1`, the cell count in test [1] was determined as 9.93%. Also, in test [2], the negative logarithm of the IC50 (pIC50) was 5.79.
In turn, `CSc1nc(N(C)NC(=O)c2cccc(C)c2)c2ccccc2n1` returned a cell count in test [1] of 39.5%. The pIC50 in test [2] is 6.38.
In turn, `CCCC1=Nc2cc(C(=O)NCCCOCC)ccc2Sc2ccccc21` displayed a cell count in test [1] of 31.7%. For the same compound, the negative logarithm of the IC50 (pIC50) in test [2] was 6.00.
`COC(=O)c1ccccc1NC(=O)Cn1c(-c2nonc2N)nc2ccccc21` gave a cell count in test [1] of 104%. Besides, the IC50 in test [2] was > 10 µM (inactive).
In test [1], `Cc1ccc(CSc2nc3ccccc3cc2C=O)cc1` displayed a cell count of 110%. Besides, the IC50 in test [2] was > 10 µM (inactive).
For `CC1=CC(C)(C)N(S(=O)(=O)c2ccc(C)cc2)c2cc(C)ccc21`, in that order: 113% and > 10 µM (inactive).
In turn, `O=C(COC(=O)c1ccccc1C(=O)c1ccc(Cl)c([N+](=O)[O-])c1)NC1CCCCCC1` displayed a cell count in test [1] of 91%. In addition, the IC50 in test [2] is > 10 µM (inactive).
In turn, `Cc1ccc(Cl)cc1NC1=C/C(=N\S(=O)(=O)c2cccs2)c2ccccc2C1=O` showed a cell count in test [1] of 123%. Besides, the IC50 in test [2] is > 10 µM (inactive).
`CCOc1cc(/C=N\NC(=O)Cc2ccccc2)ccc1OCC(=O)Nc1ccc(C)c(C)c1`: in test [1], the cell count was found to be 110%. In addition, the IC50 in test [2] was > 10 µM (inactive).
The compound `Cc1ccccc1CS(=O)(=O)c1nnc([C@H](Cc2ccccc2)NC(=O)OC(C)(C)C)o1` returned a cell count in test [1] of 114%. Besides, the IC50 in test [2] was > 10 µM (inactive).
In turn, `OCCN=C1CCCc2c1[nH]c1ccc(Br)cc21` came in with a cell count in test [1] of 76.3%. The pIC50 in test [2] is 6.83.
On to `Cc1ccc2nc(SCC(=O)Nc3cc(C(F)(F)F)ccc3N3CCOCC3)[nH]c2c1`, for which the cell count in test [1] amounted to 105%. The IC50 in test [2] was > 10 µM (inactive).
For the compound `CC(=O)c1ccc(Oc2cc(C)nc(-n3nc(C)cc3C)n2)cc1`, the cell count in test [1] was found to be 46.9%. Besides, the negative logarithm of the IC50 (pIC50) in test [2] was 5.42.
Regarding `COc1ccccc1-c1cc(C(F)(F)F)nc(S(=O)(=O)CCCC(=O)N2CCCCC2C)n1` (configuration not stated), the cell count in test [1] was determined as 88.8%. The IC50 in test [2] is > 10 µM (inactive).
For the compound `COc1ccc(NC(=O)/C(Cl)=C(/Cl)S(=O)(=O)Cc2ccc(C)cc2)cn1`, in test [1], the cell count amounted to 22.9%. Besides, the pIC50 in test [2] is 5.49.
Consider `Cn1cc(/C=N/n2cnc3scc(-c4ccc(Cl)cc4)c3c2=O)c2ccccc21`, for which, in test [1], the cell count came out at 88.1%. Besides, the IC50 in test [2] was > 10 µM (inactive).
In test [1], `CC(/C=N/NC(=O)c1cc(-c2ccc(Cl)cc2)nc2ccccc12)=C\c1ccco1` registered a cell count of 116%. The IC50 in test [2] was > 10 µM (inactive).
The compound `O=C(NC(Nc1nc2ccc([N+](=O)[O-])cc2s1)(C(F)(F)F)C(F)(F)F)c1ccccc1` returned a cell count in test [1] of 46.9%. Further, in test [2], the pIC50 was 6.47.
As for `O=C1CCCc2c1[nH]c1ccc(Cl)cc21`, the cell count in test [1] worked out at 61.6%. For the same compound, the negative-log IC50 (pIC50) in test [2] is 6.05.
In test [1], `CCn1c2ccccc2c2cc(NC(=O)c3cc(OC)c(OC)c(OC)c3)ccc21` came in with a cell count of 33.6%. Also, the pIC50 in test [2] is 5.56.
In turn, `CN1Cc2cc(C(=O)c3cc(Cl)cc(CSc4ncccn4)c3O)cnc2NC1=O` gave a cell count in test [1] of 85.8%. Also, in test [2], the IC50 was > 10 µM (inactive).
`Cc1cc(C)c(S(=O)(=O)Nc2ccc3c4c(cccc24)CC3)c(C)c1` yielded a cell count in test [1] of 106%. The IC50 in test [2] is > 10 µM (inactive).
The corresponding values for `Cc1cc(NC(=O)CSc2nc3ccccc3c(=O)n2C2CCCC2)no1` are 111% and > 10 µM (inactive).
The compound `O=S(=O)(c1ccc(Cl)c(Cl)c1)c1snnc1-c1ccccc1` showed a cell count in test [1] of 99.6%. Besides, the pIC50 in test [2] is 5.10.
`Cc1ccc(C(=O)OCn2ncc(Cl)c(Cl)c2=O)cc1`: the pIC50 in test [2] is 5.64.
Regarding `CN=c1sc2ccccc2n1CC(O)COc1ccccc1` (configuration not stated), in test [1], the inhibition was -13.2% (inactive).
On to `Cc1oc(-c2ccc(Cl)cc2)cc1-c1nn2c(-c3ccoc3C)nnc2s1`, for which the inhibition in test [1] was -0.1% (inactive).
With `CCCCN(C(=O)NC(=O)Nc1cccc(C)c1C)S(C)(=O)=O`, the inhibition in test [1] is 9.3% (inactive).
Regarding `O=C(/C(=C/c1ccc(Cl)cc1)c1nc2ccccc2[nH]1)c1cccs1`, in test [1], the inhibition is 32.1% (inactive) and the cell count is 83.7%.
As for `Nc1cc(=O)nc(SCc2ccccc2)n1Cc1ccco1`, the inhibition in test [1] was 7% (inactive).
With `O=C(CN1CCN(c2nc(-c3ccc(F)cc3)cs2)CC1)Nc1ccc2c(c1)OCO2`, in test [1], the inhibition is 16.2% (inactive).
Regarding `Cc1cc(C)cc(OCCCCCNCCO)c1`, the inhibition in test [1] was -9.9% (inactive).
Consider `COc1ccc(-c2cc3ccc(OCc4nn[nH]n4)cc3oc2=O)cc1OC`, for which the inhibition in test [1] was -18.3% (inactive).
Consider `CO/N=C/C(=N\Nc1ccc(C)cc1)C(=O)c1ccc(OC)cc1`, for which the inhibition in test [1] was 29% (inactive).
Regarding `C=CCc1ccccc1OCC(O)CNC` (configuration not stated), the inhibition in test [1] was 5.5% (inactive).
For `CC(C)(C)SCCNC(=O)CN(c1ccc(F)cc1)S(C)(=O)=O`, the inhibition in test [1] is -12.2% (inactive).
Consider `Cn1c(NC(=O)C2c3ccccc3Oc3ccccc32)cc(=O)n(C)c1=O`, for which the inhibition in test [1] was -2.7% (inactive).
In the case of `CCCCCCCCCCn1c2c(c(=N)c3c1CCC3)CCC2`, in test [2], the pIC50 was 6.26.
With `O=S(=O)(c1cccc(-n2cnnn2)c1)N1CCOCC1`, the inhibition in test [1] is -4.6% (inactive).
As to `O=c1ccc(Oc2nc(N3CCOCC3)nc(N3CCOCC3)n2)nn1-c1ccccc1`, the inhibition in test [1] is 9% (inactive).
`CCOC(=O)c1cnn(-c2nc(-c3ccc(C)cc3)cs2)c1C(F)(F)F`: the inhibition in test [1] is 8.3% (inactive).
With `S=c1[nH]nc(COc2ccc3c(c2)OCO3)n1-c1ccccc1`, the inhibition in test [1] is 1% (inactive).
On the same count and under the same terms, the same measure for `COc1ccc(C(c2sc3ncnn3c2O)N2CC(C)OC(C)C2)cc1OC` (configuration not stated): 14.8% (inactive); for `Cc1cccc(N=C2NC(=O)CS2)c1C`: -7.6% (inactive).
With `COc1cccc(OC)c1NC(=O)CN1CCC(NC(=O)c2cccc(F)c2)CC1`, in test [1], the inhibition is 6.5% (inactive).
In the case of `COc1ccc(-c2nc(C#N)c(NCCCN(C)C)o2)cc1OC`, in test [1], the inhibition was -0.1% (inactive).
Same read-out and setting: then `CCNc1nc(NCC)n2c(SCc3ccc(F)cc3)nnc2n1`, with -6.3% (inactive); and `CCOC(=O)C1C(=O)NC(N2CCCCC2)=NC1c1ccco1` (configuration not stated), with -0.9% (inactive).
As for `O=C(CS(=O)(=O)c1cn(Cc2cccc(F)c2)c2ccccc12)N1CCCCC1`, the inhibition in test [1] is -4.4% (inactive).
On to `CCn1c(SCC(=O)N2CCN(c3cccc(Cl)c3)CC2)nc2ccccc2c1=O`, for which, in test [1], the inhibition was 8.3% (inactive).
Turning to `CCN(Cc1cc2cc(C)ccc2[nH]c1=O)C(=O)c1cccc(OC)c1`, in test [1], the inhibition is -11.5% (inactive).
As to `CCn1c(SCC(=O)Nc2cc(C)on2)nnc1-c1ccccc1`, the inhibition in test [1] is -7.4% (inactive).
As to `Nc1sccc1C(=O)c1ccc(Cl)cc1`, the inhibition in test [1] is -3.9% (inactive).
Regarding `CCOC(=O)c1cnn(-c2nc(CC)nc3sc4c(c23)CCC4)c1N`, in test [1], the inhibition was -10.3% (inactive).
On to `CC(N)Cc1ccccc1Sc1ccc(O)cc1` (configuration not stated), for which the inhibition in test [1] was -14.6% (inactive).
On to `CCOC(=O)c1cnc(-n2nc(C)cc2C)nc1NCc1ccccc1`, for which, in test [1], the inhibition is 7.9% (inactive).
Turning to `Cc1n[nH]c(=O)nc1NCc1ccccc1`, the inhibition in test [1] is -9.9% (inactive).
Regarding `CCOC1=NC(C(=O)O)c2ccccc2/C(=C(/C)Cl)N1` (configuration not stated), the inhibition in test [1] is 7.8% (inactive).
`CC1=NNC(=O)/C1=C\c1cn(-c2ccccc2)nc1-c1ccc(Cl)cc1`: in test [1], the inhibition is -15.6% (inactive).
On the same count and under the same terms, then `Cc1cc(C(=O)NN=C2C3CC4CC(C3)CC2C4)c2ccccc2n1`, with -1.3% (inactive); and `CC(C)Sc1nc2c(c(=O)n1-c1ccc(F)cc1)SCC2`, with 7.4% (inactive).
Turning to `CCCC(C(=O)NC1CCCC1)N(CCCN1CCOCC1)C(=O)c1snc(C(N)=O)c1N` (configuration not stated), the inhibition in test [1] is 4.4% (inactive).
For the compound `COC(=O)c1cccc(S(=O)(=O)N(Cc2ccco2)Cc2cc3ccc(OC)cc3[nH]c2=O)c1`, the inhibition in test [1] was -3.6% (inactive).
With `COC(=O)C1C(=O)C2=C(CC1C)NC(=O)CC2c1cccc(C)c1` (configuration not stated), the inhibition in test [1] is -3.9% (inactive).
With `CC(=O)Nc1ccc(NC2(C)C(=O)c3ccccc3C2=O)cc1`, the inhibition in test [1] is -3.5% (inactive).
